{"source": "patent US20120225471A1", "about": "“Method for producing a composite material” (priority 2011, published 2012)", "tested_on": "zygomycetes, ascomycetes and bacteria/yeast", "assay": "Cotton burr substrate disinfection, all contaminant types", "assay_type": "cell-based", "details": "2.5 mL Tween 80 added to each PEO concentration; Fisher's Exact Test p=0.318, 0.499, 0.448 (zygomycetes, ascomycetes, bacteria/yeast)", "experimental": "Eight plant essential oils (cinnamon, clove, lemongrass, oregano, savory, spearmint, tea tree and thyme) were prepared with tap water in 600 ml Pyrex glass beakers in the following volumetric concentrations: 0.1, 0.5, 1.0, 1.5, 2.0% [v:v]. Twenty-four grams of a propriety cotton burr substrate was placed in a 25×25 cm square of tule mesh tied with a rubber band to make one bundle. Each concentration was tested in replicates of 5, by submersing each bundle in a beaker containing one of the plant essential (PEO) concentrations for three hours. Each beaker was placed under constant magnetic stirring at 300 rpm, to maintain the oil emulsion during the exposure period.\nThe bundle was then opened within a laminar flow hood and three pieces of cotton burrs were transferred to five Petri plates each of Potato Dextrose Agar (PDA) and Tryptic Soy Agar (TSA).\nThe submersion process was repeated for each PEO at the five concentrations over a period of three weeks. The number of ascomycete, zygomycete and bacteria/yeast colonies were recorded for each plate every 3 days for 15 days. […]\nExample 2 followed the same procedure as Example 1, but examined the efficacy of the five selected oil concentrations at the following exposure intervals: 30, 60, and 120 minutes. This analysis determined the minimum exposure time required for microbial inhibition on cotton burr substrate. […]"}
{"smiles": "CCCCCCCC/C=C\\CCCCCCCC(=O)OCCOCC(OCCO)C1OCC(OCCO)C1OCCO", "note": "(stereo not shown) [Tween 80]", "values": [{"measurement": "frequency of contamination on substrate treated with the surfactant versus non-treated substrate", "result": "no significant difference"}]}
